Consider 38 compounds from ChEMBL document CHEMBL1142795, “Synthesis, structure-activity relationships, and anxiolytic activity of 7-aryl-6,7-dihydroimidazoimidazole corticotropin-releasing factor 1 receptor antagonists” (Bioorg Med Chem Lett, 2005).

Bounds are passed on as bounds.

System in the first data set: not listed separately
As to the kind of experiment: Area under curve (0-24 hr) upon oral administration of 10 mg/kg of dose in a dosing vehicle of 10/10/80 cremaphor/DMSO/water. The following applies: in vivo. Details: time < 24 hr, dose 10 mg/kg, route oral. The format is ADME, organism-based.
Usually AUC(0-t) stands for the area under the concentration-time curve up to a stated or last time point. In turn, `CCCN(CC1CC1)C(=O)c1c(CC)nc2n1CCN2c1c(C)cc(C)cc1C` yielded an AUC(0-t) at 24 h of 1.52 µg·h/mL.

The next data set addresses T1, Corticotropin-releasing factor receptor 1 (Homo sapiens, UniProt P34998).
T1 sequence (P34998 whole entry): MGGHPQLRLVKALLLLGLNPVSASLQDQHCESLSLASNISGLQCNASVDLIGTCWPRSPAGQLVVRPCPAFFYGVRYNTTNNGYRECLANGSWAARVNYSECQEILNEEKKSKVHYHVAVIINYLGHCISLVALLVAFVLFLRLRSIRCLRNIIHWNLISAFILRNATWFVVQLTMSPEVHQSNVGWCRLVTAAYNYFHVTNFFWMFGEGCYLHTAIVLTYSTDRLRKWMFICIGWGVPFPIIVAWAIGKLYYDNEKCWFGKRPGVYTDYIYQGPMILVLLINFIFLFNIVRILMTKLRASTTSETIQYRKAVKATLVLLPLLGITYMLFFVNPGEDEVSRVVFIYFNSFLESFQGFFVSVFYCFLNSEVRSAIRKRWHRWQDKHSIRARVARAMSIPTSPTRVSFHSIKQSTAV
As to the kind of experiment: Displacement of [125I]-Tyr-o- CRF from human corticotropin releasing factor receptor 1 expressed in IMR-32 cells. The format is cell-based.
Settings: not given
(In general: Displacement assays read how much labelled ligand stays bound in the presence of the test substance.)
A word on the Ki: it is the dissociation constant of the complex between target and ligand, obtained from inhibition or displacement. Read a low Ki as higher affinity. As for `CCc1nc2n(c1C(=O)N(CC1CC1)CC1CC1)CCN2c1c(C)cc(C)cc1C`, the Ki amounted to 0.068 µM.

As to `CCc1nc2n(c1C(=O)Nc1ccccc1)CCN2c1c(C)cc(C)cc1C`, the Ki is more than 10 µM.

Turning to `CCCCN(CC)C(=O)c1c(CC)nc2n1CCN2c1c(C)cc(C)cc1C`, the affinity corresponds to a Ki of 0.29 µM.

`CCCN(CCC1CC1)C(=O)c1c(CC)nc2n1CCN2c1c(C)cc(C)cc1C` returned a Ki of 0.77 µM.

In turn, `CCc1nc2n(c1C(=O)N1CCN(C(C)=O)CC1)CCN2c1c(C)cc(C)cc1C` yielded an inhibition constant (Ki) of more than 10 µM.

With `CCCN(Cc1c(CC)nc2n1CCN2c1c(C)cc(C)cc1C)CC1CC1`, the affinity, expressed as Ki, was 19 µM.

As for `CCc1nc2n(c1C(=O)N(Cc1ccccc1)Cc1ccccc1)CCN2c1c(C)cc(C)cc1C`, the Ki is more than 10 µM.

Turning to `CCCN(CC1CC1)C(=O)c1c(C)nc2n1CCN2c1c(C)cc(C)cc1C`, the Ki came out at 0.22 µM.

Compound `CCCN(Cc1ccccc1)C(=O)c1c(CC)nc2n1CCN2c1c(C)cc(C)cc1C` returned a Ki of 4.1 µM.

In turn, `C=CCN(CC=C)C(=O)c1c(CC)nc2n1CCN2c1c(C)cc(C)cc1C` registered a Ki of 3 µM.

`CCc1nc2n(c1C(=O)N(CC1CC1)CC(F)(F)F)CCN2c1ccc(C(C)C)cc1Br` gave a Ki of 0.27 µM.

The compound `CCCN(Cc1ccc(Cl)cc1)C(=O)c1c(CC)nc2n1CCN2c1c(C)cc(C)cc1C` returned a Ki of 3 µM.

In turn, `CCc1nc2n(c1C(=O)N(CCC(F)(F)F)Cc1ccc(Cl)cc1)CCN2c1c(C)cc(C)cc1C` had a Ki of 0.27 µM.

As to `CCc1nc2n(c1C(=O)N(CC1CC1)CC(F)(F)C(F)(F)F)CCN2c1c(C)cc(C)cc1C`, the affinity, expressed as Ki, was 0.063 µM.

`CCc1nc2n(c1C(=O)N(CC)CC1CC1)CCN2c1c(C)cc(C)cc1C` showed a Ki of 0.094 µM.

With `CCc1nc2n(c1C(=O)N(CC)CCC1CC1)CCN2c1c(C)cc(C)cc1C`, the Ki was 0.61 µM.

Compound `CCc1nc2n(c1C(=O)N(CC)CCN(C)C)CCN2c1c(C)cc(C)cc1C` came in with a Ki of more than 10 µM.

Regarding `CCc1nc2n(c1C(=O)N(CCC1CC1)CCC(F)(F)F)CCN2c1c(C)cc(C)cc1C`, the Ki came out at 0.65 µM.

With `CCCN(Cc1cccc(F)c1)C(=O)c1c(CC)nc2n1CCN2c1c(C)cc(C)cc1C`, affinity was put at a Ki of 4.2 µM.

In turn, `CCCN(CC1CC1)C(=O)c1c(CC)nc2n1CCN2c1c(C)cc(C)cc1Br` had an inhibition constant Ki of 0.126 µM.

In the case of `CCc1nc2n(c1C(=O)N(CC1CC1)CC(F)(F)F)CCN2c1c(C)cc(C)cc1Br`, the Ki amounted to 0.026 µM.

Consider `CCc1nc2n(c1C(=O)N1CCN(c3ccccc3F)CC1)CCN2c1c(C)cc(C)cc1C`, for which the Ki was more than 10 µM.

Turning to `CCCN(CC1CC1)C(=O)c1c(CC)nc2n1CCN2c1ccc(C(C)C)cc1Br`, the affinity corresponds to a Ki of 1.56 µM.

As to `CCc1nc2n(c1C(=O)N1CCNCC1)CCN2c1c(C)cc(C)cc1C`, the inhibition constant Ki is more than 10 µM.

Compound `CCCN(CCC(F)(F)F)C(=O)c1c(CC)nc2n1CCN2c1c(C)cc(C)cc1C` displayed an inhibitory constant (Ki) of 0.22 µM.

Compound `CCCN(CCc1ccccc1)C(=O)c1c(CC)nc2n1CCN2c1c(C)cc(C)cc1C` showed an inhibition constant Ki of 0.22 µM.

As to `CCCN(CC1CC1)C(=O)c1c(CC)nc2n1CCN2c1c(C)cc(Cl)cc1Cl`, the Ki amounted to 0.075 µM.

Regarding `CCc1nc2n(c1C(=O)N(CCC(F)(F)F)Cc1ccccc1)CCN2c1c(C)cc(C)cc1C`, the Ki was 0.66 µM.

`CCc1nc2n(c1C(=O)N(CC1CC1)CC(F)(F)F)CCN2c1c(C)cc(C)cc1C`: the Ki was 0.041 µM.

For `CCc1nc2n(c1C(=O)N(CC1CC1)CC(F)(F)F)CCN2c1c(C)cc(C)cc1Cl`, the inhibition constant Ki amounted to 0.041 µM.

In the case of `CCCN(CC1CC1)C(=O)c1c(CC)nc2n1CCN2c1c(C)cc(C)cc1C`, the Ki is 0.042 µM.

`CCCN(Cc1c(C)nc2n1CCN2c1c(C)cc(C)cc1C)CC1CC1`: the affinity, expressed as Ki, was 6.6 µM.

On to `CCc1nc2n(c1C(=O)N(CC1CC1)CC(F)(F)F)CCN2c1c(C)cc(Cl)cc1Cl`, for which the Ki is 0.024 µM.

The compound `CCCN(CCC)C(=O)c1c(CC)nc2n1CCN2c1c(C)cc(C)cc1C` returned a Ki of 0.1 µM.

`C=CCN(CCC)C(=O)c1c(CC)nc2n1CCN2c1c(C)cc(C)cc1C`: affinity was put at a Ki of 0.74 µM.

`CCCN(CC1CC1)C(=O)c1c(CC)nc2n1CCN2c1c(C)cc(C)cc1Cl` registered a Ki of 0.094 µM.

In turn, `CCCN(CC(F)(F)F)C(=O)c1c(CC)nc2n1CCN2c1c(C)cc(C)cc1C` registered a Ki of 0.061 µM.

Consider `CCc1nc2n(c1C(=O)N(CCC(F)(F)F)CC1CC1)CCN2c1c(C)cc(C)cc1C`, for which the Ki came to 0.073 µM.

System in the next data set: not listed separately
Briefly: Maximum concentration upon oral administration of 10 mg/kg of dose in a dosing vehicle of 10/10/80 cremaphor/DMSO/water. The format is ADME, organism-based. Details: dose 10 mg/kg, route oral. The following applies: in vivo.
By Cmax is commonly meant the peak of the concentration-time curve. In the case of `CCCN(CC1CC1)C(=O)c1c(CC)nc2n1CCN2c1c(C)cc(C)cc1C`, the peak level (Cmax) was 0.25 µg/mL.

System in a further data set: not listed separately
As to the kind of experiment: Clearance upon intravenous administration of 2 mg/kg of dose in a dosing vehicle of 10/10/80 cremaphor/DMSO/water. The format is ADME, organism-based. Details: dose 2 mg/kg, route intravenous. The conditions noted are these: in vivo.
By clearance is commonly meant the volume of plasma or blood freed of the substance per unit of time. A high value points to efficient removal. Compound `CCCN(CC1CC1)C(=O)c1c(CC)nc2n1CCN2c1c(C)cc(C)cc1C` returned a clearance of 2.1 L/h/kg.

System in the next data set: not listed separately
Briefly: Volume of distribution upon intravenous administration of 2 mg/kg of dose in a dosing vehicle of 10/10/80 cremaphor/DMSO/water. The format is ADME, organism-based. Details: dose 2 mg/kg, route intravenous. The following applies: in vivo.
One may read the Vd as a proportionality between amount in the body and measured concentration, not a real space. Low values mean confinement near the circulation, high ones extensive tissue distribution. For the compound `CCCN(CC1CC1)C(=O)c1c(CC)nc2n1CCN2c1c(C)cc(C)cc1C`, the Vd is 5.7 L/kg.

System in a further data set: not listed separately
As to the kind of experiment: Brain to plasma (2 hours) concentration ratio upon intravenous administration of 2 mg/kg of dose in a dosing vehicle of 10/10/80 cremaphor/DMSO/water. Type of data set: ADME, organism-based. Details: dose 2 mg/kg, route intravenous. The following applies: brain and plasma, read-out: B/P.
As to `CCCN(CC1CC1)C(=O)c1c(CC)nc2n1CCN2c1c(C)cc(C)cc1C`, the Kp at 2 h turned out to be 0.21.

System in the next data set: not listed separately
As to the kind of experiment: Maximum time to reach peak concentration upon oral administration of 10 mg/kg of dose in a dosing vehicle of 10/10/80 cremaphor/DMSO/water. The format is ADME, organism-based. Details: dose 10 mg/kg, route oral. The conditions noted are these: in vivo.
For orientation: Tmax means the time at which the peak concentration occurs. With `CCCN(CC1CC1)C(=O)c1c(CC)nc2n1CCN2c1c(C)cc(C)cc1C`, the time to peak (Tmax) is 4 h.

System in another data set: not listed separately
Briefly: Bioavailability upon oral administration of 10 mg/kg of dose in a dosing vehicle of 10/10/80 cremaphor/DMSO/water. The format is ADME, organism-based. The following applies: eutheria, in vivo.
What is called bioavailability is dose-corrected exposure relative to a reference, in per cent. Compound `CCCN(CC1CC1)C(=O)c1c(CC)nc2n1CCN2c1c(C)cc(C)cc1C` showed a bioavailability of 32%.
